Each structure is given as a SMILES string.

This test addresses Keap1 (Homo sapiens (Human), UniProt Q14145). The test is described as follows: HEK293 ARE luciferase assay. It is filed as cell-based. The settings on record: HEK-293 ARE firefly luciferase transiently transfected cells; 18 h incubation; mean of 1 to 20 individual measurements. The source says: The purpose of this assay is to identify small molecule inhibitors of Keap1, preventing Keap1 binding to Nrf2, and thus activating the Nrf2 signalling pathway in HEK-293 ARE firefly luciferase transiently transfected cells. HEK-293 cells express wild-type Keap1 protein and therefore have low constitutive levels of Nrf2 protein and Nrf2-dependent transcription. […] When Keap1 is inhibited, Nrf2 signalling is activated, and there is an increase in luciferase expression and light emission.
Cryopreserved HEK ARE luciferase cells were rapidly thawed in a 37° C. water bath and resuspended in assay culture medium (DMEM, 10% FCS, 2 mM L-glutamine). The cell suspension was pelleted by centrifugation ([…]; 300 g) using a Heraeus benchtop centrifuge. Supernatant was removed and the pellet was gently resuspended in 5 mL culture medium per vial. Cell viability and cell number was measured using an Invitrogen Countess automated cell counter (typical viability 80%), and cells were diluted to a density of 5.0×10^5 cells/mL.
Cells were then plated out into white 384-well plates (Greiner 781080) using a Multidrop Combi, 20 μL/well, to give 10,000 cells/well. As appropriate, test compounds had been added to wells prior to dispensing cells using an Echo 555 acoustic dispenser (Labcyte). Plates were left at room temperature for ˜10 min to promote even cell settling across the plate before incubation for 18 h at 37° C., 95% humidity and 5% CO2.
After 18 h incubation, plates were removed from the incubator and allowed to cool to room temperature for 30 min, before 10 μL per well SteadyGlo reagent detection reagent was added (as per manufacturer's instructions, 10 min before required 10 mL room temperature buffer was added to one vial of lyophilised substrate and inverted several times to fully dissolve). Plates were then incubated in the dark for 30 min before reading on an Envision plate reader.
Compounds were acoustically dispensed using a Labcyte Echo, using a 10 pt dose curve with a top concentration of 100 μM. Assay wells were backfilled with DMSO to a total of 60 nL to maintain 0.3% (v/v) DMSO through the assay.
The Stimulator signal was defined using 30 μM tert-butyl hydroquinone (tBHQ) and the Neutral signal by DMSO vehicle control. All calculations were performed using GeneData.
In IBIS Column Calculations, Assay Type was set to ‘Stimulator’, and the Activity Threshold was set to 50.
The mean values were calculated from anywhere from 1 to 20 individual measurements.

Sequence of Keap1 (Q14145 whole entry): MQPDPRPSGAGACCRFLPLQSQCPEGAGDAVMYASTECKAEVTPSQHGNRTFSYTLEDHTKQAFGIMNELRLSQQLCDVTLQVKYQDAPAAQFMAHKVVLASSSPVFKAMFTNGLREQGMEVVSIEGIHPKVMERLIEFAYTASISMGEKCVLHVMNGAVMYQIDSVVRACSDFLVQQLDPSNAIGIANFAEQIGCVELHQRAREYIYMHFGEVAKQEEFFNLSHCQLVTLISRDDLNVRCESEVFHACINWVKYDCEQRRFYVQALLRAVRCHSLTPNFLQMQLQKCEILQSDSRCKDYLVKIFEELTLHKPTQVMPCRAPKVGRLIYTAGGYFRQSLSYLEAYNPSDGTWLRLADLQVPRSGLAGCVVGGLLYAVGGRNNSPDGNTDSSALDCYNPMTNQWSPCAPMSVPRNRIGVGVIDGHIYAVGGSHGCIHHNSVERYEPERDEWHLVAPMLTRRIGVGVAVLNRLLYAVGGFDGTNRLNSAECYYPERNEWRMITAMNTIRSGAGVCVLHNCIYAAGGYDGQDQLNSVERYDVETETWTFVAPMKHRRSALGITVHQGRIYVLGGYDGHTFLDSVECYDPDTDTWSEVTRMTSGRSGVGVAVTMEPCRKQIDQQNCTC

With `COC1(c2ncc(F)cc2-c2cnccc2C#N)C=C(C#N)C(=O)C(C)(C)C1` (single isomer, unassigned) [Compound 217, 2′-[3-cyano-1-methoxy-5,5-dimethyl-4-oxocyclohex-2-en-1-yl]-5′-fluoro[3,3′-bipyridine]-4-carbonitrile], the EC50 worked out at 12 nM.

In turn, `COC1(c2cccc(C3CC3)n2)C=C(C#N)C(=O)C(C)(C)C1` (stereo not shown) [Compound 109, 3-(6-cyclopropylpyridin-2-yl)-3-methoxy-5,5-dimethyl-6-oxocyclohex-1-ene-1-carbonitrile] registered an EC50 of 185 nM.

`COC1(c2ncc(F)cc2-c2ccnc(C)c2C)C=C(C#N)C(=O)C(C)(C)C1` (stereo not shown) [Compound 175, 3-(5-fluoro-2′,3′-dimethyl[3,4′-bipyridin]-2-yl)-3-methoxy-5,5-dimethyl-6-oxocyclohex-1-ene-1-carbonitrile] showed an EC50 of 174 nM. This EC50 and that of the molecule before are within 1.5-fold of each other.

With `COC1(c2cncc(C)n2)C=C(C#N)C(=O)C2(CC2)C1` (stereo not shown) [Compound 131, 7-methoxy-7-(6-methylpyrazin-2-yl)-4-oxospiro[2.5]oct-5-ene-5-carbonitrile], the response was half-maximal at 464 nM (EC50).

Turning to `COC1(c2ncc(F)cc2-c2cccn(C)c2=O)C=C(C#N)C(=O)C(C)(C)C1` (stereo not shown) [Compound 171, 3-(5-fluoro-1′-methyl-2′-oxo[1′,2′-dihydro[3,3′-bipyridine]]-2-yl)-3-methoxy-5,5-dimethyl-6-oxocyclohex-1-ene-1-carbonitrile], the EC50 amounted to 136 nM.

`COC1(c2nc(C)c(-c3ccccn3)s2)C=C(C#N)C(=O)C2(CC2)C1` (single isomer, unassigned) [Compound 102, 7-methoxy-7-[4-methyl-5-(pyridin-2-yl)-1,3-thiazol-2-yl]-4-oxospiro[2.5]oct-5-ene-5-carbonitrile] showed an EC50 of 73 nM.

`COC1(c2ncc(F)cc2C#CC(C)C)C=C(C#N)C(=O)C(C)(C)C1` (stereo not shown) [Compound 165, 3-[5-fluoro-3-(3-methylbut-1-yn-1-yl)pyridin-2-yl]-3-methoxy-5,5-dimethyl-6-oxocyclohex-1-ene-1-carbonitrile] gave an EC50 of 151 nM.

The molecule `COC1(c2ncccc2C(F)F)C=C(C#N)C(=O)C(C)(C)C1` (single isomer, unassigned) [Compound 5, 3-(3-(difluoromethyl)pyridin-2-yl)-3-methoxy-5,5-dimethyl-6-oxocyclohex-1-enecarbonitrile] registered an EC50 of 10 nM.

As to `CCn1cc(-c2cc(F)cnc2C2(OC)C=C(C#N)C(=O)C(C)(C)C2)cn1` (stereo not shown) [Compound 181, 3-[3-(1-ethyl-1H-pyrazol-4-yl)-5-fluoropyridin-2-yl]-3-methoxy-5,5-dimethyl-6-oxocyclohex-1-ene-1-carbonitrile], the midpoint of the response, the EC50, lay at 68 nM.

For `COC1(c2ncc(F)cc2Br)C=C(C#N)C(=O)C(C)(C)C1` (single isomer, unassigned) [Compound 48, 3-(3-bromo-5-fluoropyridin-2-yl)-3-methoxy-5,5-dimethyl-6-oxocyclohex-1-enecarbonitrile], the EC50 stood at 6 nM. This EC50 is about 11-fold lower than that of the molecule before.

In turn, `COC1(c2ccc(F)cn2)C=C(C#N)C(=O)C2(CCCC2)C1` (single isomer, unassigned) [Compound 67, 9-(5-fluoropyridin-2-yl)-9-methoxy-6-oxospiro[4.5]dec-7-ene-7-carbonitrile] registered a 50% effective concentration (EC50) of 239 nM. Compared with the last molecule, the EC50 is about 40-fold higher.

In turn, `COC1(c2ncc(F)cc2-c2cncc(C#N)c2)C=C(C#N)C(=O)C(C)(C)C1` (single isomer, unassigned) [Compound 85, 2′-(3-cyano-1-methoxy-5,5-dimethyl-4-oxocyclohex-2-enyl)-5′-fluoro-3,3′-bipyridine-5-carbonitrile] came in with an EC50 of 6 nM.

`COC1(c2ncc(F)cc2-c2cncc(C(F)(F)F)c2)C=C(C#N)C(=O)C(C)(C)C1` (single isomer, unassigned) [Compound 215, 3-[5-fluoro-5′-(trifluoromethyl)[3,3′-bipyridin]-2-yl]-3-methoxy-5,5-dimethyl-6-oxocyclohex-1-ene-1-carbonitrile]: the response was half-maximal at 15 nM (EC50).

In general, EC50 refers to the midpoint of the concentration-response curve. Higher therefore signals lower potency in that assay.

The record behind these values is US11479539B2, “Small molecule modulators of the BTB domain of Keap1” (MedImmune Limited, priority 2017, dated 2022).
